Data as given in patent US20250059159A1, “PLPRO INHIBITORS” (SHANGHAI SYNERGY PHARMACEUTICAL SCIENCES CO., LTD., priority 2021, published 2025).

Molecular target: SARS-CoV-2 PLpro (Severe acute respiratory syndrome coronavirus 2 (2019-nCoV) (SARS-CoV-2), UniProt P0DTD1)
Assay: PLpro enzymatic inhibition assay (IC50 value determination)
Assay type: biochemical
Conditions: 60 min preincubation for covalent inhibitors, 10 min for non-covalent, read-out: Inhibition of SARS-CoV-2 PLpro IC50 range

Structure (SMILES)	IC50
C#CCNC(=O)CNC(=O)CN(C1CCN(C(C)c2cccc(Br)c2)CC1)S(C)(=O)=O (stereo not shown) [Compound 108, 2-(N-(1-(1-(3-bromophenyl)ethyl)piperidin-4-yl)methylsulfonamido)-N-(2-oxo-2-(prop-2-yn-1-ylamino)ethyl)acetamide]	100 to 1000 nM
C#CCNC(=O)CNC(=O)CN(C1CCN(C(C)c2ccc3ccccc3c2)CC1)S(C)(=O)=O (stereo not shown) [Compound 110, 2-(N-(1-(1-(naphthalen-2-yl)ethyl)piperidin-4-yl)methylsulfonamido)-N-(2-oxo-2-(prop-2-yn-1-ylamino)ethyl)acetamide]	< 100 nM
C#CCNC(=O)CNC(=O)CN(C1CCN(C(C)c2nccc3ccccc23)CC1)S(C)(=O)=O (stereo not shown) [Compound 111, 2-(N-(1-(1-(isoquinolin-1-yl)ethyl)piperidin-4-yl)methylsulfonamido)-N-(2-oxo-2-(prop-2-yn-1-ylamino)ethyl)acetamide]	100 to 1000 nM
C#CCNC(=O)CNC(=O)CN(C1CCN(C(C)c2cccc(-c3ccccc3)c2)CC1)S(C)(=O)=O (stereo not shown) [Compound 112, 2-(N-(1-(1-([1,1′-biphenyl]-3-yl)ethyl)piperidin-4-yl)methylsulfonamido)-N-(2-oxo-2-(prop-2-yn-1-ylamino)ethyl)acetamide]	100 to 1000 nM
C#CCNC(=O)CNC(=O)CN(C1CCN(C(C)c2ccccc2-c2ccccc2)CC1)S(C)(=O)=O (stereo not shown) [Compound 113, 2-(N-(1-(1-([1,1′-biphenyl]-2-yl)ethyl)piperidin-4-yl)methylsulfonamido)-N-(2-oxo-2-(prop-2-yn-1-ylamino)ethyl)acetamide]	100 to 1000 nM
CC(c1cccc2ccccc12)N1CCC(N(CC(=O)NCC(=O)NCC#N)S(C)(=O)=O)CC1 (stereo not shown) [Compound 114, N-(cyanomethyl)-2-(2-(N-(1-(1-(naphthalen-1-yl)ethyl)piperidin-4-yl)methylsulfonamido)acetamido)acetamide]	1000 to 10000 nM
C#CCNC(=O)CNC(=O)CN(C1CCN(C(C)c2cccc3ccccc23)CC1)S(=O)(=O)N1CCN(CC(=O)OCC)CC1 (stereo not shown) [Compound 115, ethyl 2-(4-(N-(1-(1-(naphthalen-1-yl)ethyl)piperidin-4-yl)-N-(2-oxo-2-((2-oxo-2-(prop-2-yn-1-ylamino)ethyl)amino)ethyl)sulfamoyl)piperazin-1-yl)acetate]	< 100 nM
C#CCNC(=O)CNC(=O)CN(C1CCN(C(C)c2cccc3ccccc23)CC1)S(=O)(=O)N1CCN(CC(=O)O)CC1 (stereo not shown) [Compound 117]	1000 to 10000 nM
C#CCNC(=O)CNC(=O)CN(C(=O)CCC(=O)O)C1CCN(C(C)c2cccc3ccccc23)CC1 (stereo not shown) [Compound 118, 4-((1-(1-(naphthalen-1-yl)ethyl)piperidin-4-yl)(2-oxo-2-((2-oxo-2-(prop-2-yn-1-ylamino)ethyl)amino)ethyl)amino)-4-oxobutanoic acid]	1000 to 10000 nM
C#CCNC(=O)CNC(=O)CN(C1CCN(c2nc3ccccc3s2)CC1)S(C)(=O)=O [Compound 119, 2-(N-(1-(benzo[d]thiazol-2-yl)piperidin-4-yl)methylsulfonamido)-N-(2-oxo-2-(prop-2-yn-1-ylamino)ethyl)acetamide]	100 to 1000 nM
C#CCNC(=O)CNC(=O)CN(C1CCN(C(C)c2ccc(Cl)cc2Cl)CC1)S(C)(=O)=O (stereo not shown) [Compound 120, 2-(N-(1-(1-(2,4-dichlorophenyl)ethyl)piperidin-4-yl)methylsulfonamido)-N-(2-oxo-2-(prop-2-yn-1-ylamino)ethyl)acetamide]	100 to 1000 nM
C#CCNC(=O)CNC(=O)CN(C1CCN(C(C)c2ccc(OC)c(Cl)c2)CC1)S(C)(=O)=O (stereo not shown) [Compound 121, 2-(N-(1-(1-(3-chloro-4-methoxyphenyl)ethyl)piperidin-4-yl)methylsulfonamido)-N-(2-oxo-2-(prop-2-yn-1-ylamino)ethyl)acetamide]	< 100 nM
C#CCNC(=O)CNC(=O)CN(C1CCN(C(C)c2cccc(OC)c2Cl)CC1)S(C)(=O)=O (stereo not shown) [Compound 123, 2-(N-(1-(1-(2-chloro-3-methoxyphenyl)ethyl)piperidin-4-yl)methylsulfonamido)-N-(2-oxo-2-(prop-2-yn-1-ylamino)ethyl)acetamide]	100 to 1000 nM
C#CCNC(=O)CNC(=O)CN(C1CCN(C(C)c2c(Cl)cccc2Cl)CC1)S(C)(=O)=O (stereo not shown) [Compound 125, 2-(N-(1-(1-(2,6-dichlorophenyl)ethyl)piperidin-4-yl)methylsulfonamido)-N-(2-oxo-2-(prop-2-yn-1-ylamino)ethyl)acetamide]	100 to 1000 nM
C#CCNC(=O)CNC(=O)CN(C1CCN(c2nc3cc(Cl)ccc3s2)CC1)S(C)(=O)=O [Compound 126, 2-(N-(1-(5-chlorobenzo[d]thiazol-2-yl)piperidin-4-yl)methylsulfonamido)-N-(2-oxo-2-(prop-2-yn-1-ylamino)ethyl)acetamide]	1000 to 10000 nM
C#CCCNC(=O)CNC(=O)CN(C1CCN([C@H](C)c2cccc3ccccc23)CC1)S(C)(=O)=O [Compound 127, (R)—N-(but-3-yn-1-yl)-2-(2-(N-(1-(1-(naphthalen-1-yl)ethyl)piperidin-4-yl)methylsulfonamido)acetamido)acetamide]	100 to 1000 nM

Structure (SMILES)	IC50
C#CC(C)NC(=O)CNC(=O)CN(C1CCN([C@H](C)c2cccc3ccccc23)CC1)S(C)(=O)=O (stereo partly drawn) [Compound 128, N-(but-3-yn-2-yl)-2-(2-(N-(1-((R)-1-(naphthalen-1-yl)ethyl)piperidin-4-yl)methylsulfonamido)acetamido)acetamide]	1000 to 10000 nM
C#CCNC(=O)CNC(=O)CN(C1CCN(C(C)c2ccccc2F)CC1)S(C)(=O)=O (stereo not shown) [Compound 129, 2-(N-(1-(1-(2-fluorophenyl)ethyl)piperidin-4-yl)methylsulfonamido)-N-(2-oxo-2-(prop-2-yn-1-ylamino)ethyl)acetamide]	100 to 1000 nM
C#CCNC(=O)CNC(=O)CN(C1CCN(C(C)c2ccccc2OC)CC1)S(C)(=O)=O (stereo not shown) [Compound 130, 2-(N-(1-(1-(2-methoxyphenyl)ethyl)piperidin-4-yl)methylsulfonamido)-N-(2-oxo-2-(prop-2-yn-1-ylamino)ethyl)acetamide]	< 100 nM
C#CCNC(=O)CNC(=O)CN(C1CCN(C(C)c2cccc3ccccc23)CC1)S(=O)(=O)CCC(=O)OC (stereo not shown) [Compound 131, methyl 3-(N-(1-(1-(naphthalen-1-yl)ethyl)piperidin-4-yl)-N-(2-oxo-2-((2-oxo-2-(prop-2-yn-1-ylamino)ethyl)amino)ethyl)sulfamoyl)propanoate]	< 100 nM
CC(c1cccc2ccccc12)N1CCC(N(CC(=O)NCC(=O)NCC(=O)CF)S(C)(=O)=O)CC1 (stereo not shown) [Compound 132, N-(3-fluoro-2-oxopropyl)-2-(2-(N-(1-(1-(naphthalen-1-yl)ethyl)piperidin-4-yl)methylsulfonamido)acetamido)acetamide]	< 100 nM
C#CCNC(=O)CNC(=O)CN(C1CCN([C@H](C)c2cccc3ccccc23)CC1)S(=O)(=O)CCC(N)=O [Compound 133, (R)-3-(N-(1-(1-(naphthalen-1-yl)ethyl)piperidin-4-yl)-N-(2-oxo-2-((2-oxo-2-(prop-2-yn-1-ylamino)ethyl)amino)ethyl)sulfamoyl)propanamide]	< 100 nM
C#CCNC(=O)CNC(=O)CN(C1CCN([C@H](C)c2cccc3ccccc23)CC1)S(=O)(=O)N1CCC(C(=O)OC)C1 (stereo partly drawn) [Compound 134, methyl 1-(N-(1-((R)-1-(naphthalen-1-yl)ethyl)piperidin-4-yl)-N-(2-oxo-2-((2-oxo-2-(prop-2-yn-1-ylamino)ethyl)amino)ethyl)sulfamoyl)pyrrolidine-3-carboxylate]	< 100 nM
C#CCNC(=O)CNC(=O)CN(C1CCN([C@H](C)c2cccc3ccccc23)CC1)S(=O)(=O)CCCO [Compound 135, (R)-2-((3-hydroxy-N-(1-(1-(naphthalen-1-yl)ethyl)piperidin-4-yl)propyl)sulfonamido)-N-(2-oxo-2-(prop-2-yn-1-ylamino)ethyl)acetamide]	< 100 nM
COC(=O)/C=C/CNC(=O)c1nnc(CNC(=O)CN(C2CCN(C(C)c3cccc4ccccc34)CC2)S(C)(=O)=O)o1 (stereo not shown) [Compound 136, methyl (E)-4-(5-((2-(N-(1-(1-(naphthalen-1-yl)ethyl)piperidin-4-yl)methylsulfonamido)acetamido)methyl)-1,3,4-oxadiazole-2-carboxamido)but-2-enoate]	100 to 1000 nM
C#CCNC(=O)CNC(=O)CN(C1CCN([C@H](C)c2cccc3ccccc23)CC1)S(=O)(=O)N1CCC(C(N)=O)C1 (stereo partly drawn) [Compound 137, 1-(N-(1-((R)-1-(naphthalen-1-yl)ethyl)piperidin-4-yl)-N-(2-oxo-2-((2-oxo-2-(prop-2-yn-1-ylamino)ethyl)amino)ethyl)sulfamoyl)pyrrolidine-3-carboxamide]	< 100 nM
C#CCNC(=O)CNC(=O)CN(C1CCN(C(C)c2ccc(OC)cc2Cl)CC1)S(C)(=O)=O (stereo not shown) [Compound 139, 2-(N-(1-(1-(2-chloro-4-methoxyphenyl)ethyl)piperidin-4-yl)methylsulfonamido)-N-(2-oxo-2-(prop-2-yn-1-ylamino)ethyl)acetamide]	100 to 1000 nM
C#CCNC(=O)CNC(=O)CN(C1CCN(C(C)c2cc(Cl)ccc2Cl)CC1)S(C)(=O)=O (stereo not shown) [Compound 140, 2-(N-(1-(1-(2,5-dichlorophenyl)ethyl)piperidin-4-yl)methylsulfonamido)-N-(2-oxo-2-(prop-2-yn-1-ylamino)ethyl)acetamide]	100 to 1000 nM
C#CCNC(=O)CNC(=O)CN(C1CCN(C(C)c2cccc(-c3cccs3)c2)CC1)S(C)(=O)=O (stereo not shown) [Compound 141, N-(2-oxo-2-(prop-2-yn-1-ylamino)ethyl)-2-(N-(1-(1-(3-(thiophen-2-yl)phenyl)ethyl)piperidin-4-yl)methylsulfonamido)acetamide]	100 to 1000 nM
C#CCNC(=O)CNC(=O)CN(C1CCN(C(C)c2cccc(C)c2Cl)CC1)S(C)(=O)=O (stereo not shown) [Compound 142, 2-(N-(1-(1-(2-chloro-3-methylphenyl)ethyl)piperidin-4-yl)methylsulfonamido)-N-(2-oxo-2-(prop-2-yn-1-ylamino)ethyl)acetamide]	100 to 1000 nM
C#CCNC(=O)CNC(=O)CN(C1CCN(C(CO)c2cccc3ccccc23)CC1)S(C)(=O)=O (stereo not shown) [Compound 143, 2-(N-(1-(2-hydroxy-1-(naphthalen-1-yl)ethyl)piperidin-4-yl)methylsulfonamido)-N-(2-oxo-2-(prop-2-yn-1-ylamino)ethyl)acetamide]	1000 to 10000 nM
